Patent USRE38257E1, “Piperdine derivatives and hypotensives containing the same” (Ajinomoto Co., Inc., priority 1988, dated 2003)
Structures can show the parent of a compound that is named as a salt.

Test system: male spontaneously hypertensive rats
Assay: Decrease in systolic blood pressure in spontaneously hypertensive rats after intravenous bolus injection, indirect (tail-cuff) method
Assay type: in vivo, rat
Conditions: for Decrease in systolic blood pressure (mmHg) time after administration (hour) 0.5: 0.5 hour after administration; for Decrease in systolic blood pressure (mmHg) time after administration (hour) 4: 4 hours after administration
Description: As test animals, four male spontaneously hypertensive rats (weight 400 to 440 g) that were sufficiently adapted for feeding and in which hypertension was confirmed were used.
Physiological saline aqueous solution containing 2.5% Nicolle and 2.5% ethanol of sample was intravenously administered by bolus injection at a dose of 1 ml per 1 kg of body weight. Systolic blood pressure after administration was measured by the indirect (tail-cuff) method.

Compound: COc1cc(C(C#N)(CCCN2CCC(=C3c4ccccc4C=Cc4ccccc43)CC2)C(C)C)cc(OC)c1OC.Cl (centres unmarked) [Example 126, 5-(4-(5H-Dibenzo[a,d]cyclohepten-5-ylidene)-1-piperidinyl)-2-isopropyl-2-(3,4,5-trimethoxyphenyl)valeronitrile hydrochloride]
- Decrease in systolic blood pressure (mmHg) time after administration (hour) 0.5 (dose 10 mg/kg i.v. bolus): −87 mmHg
- Decrease in systolic blood pressure (mmHg) time after administration (hour) 4 (dose 10 mg/kg i.v. bolus): −19 mmHg

Compound: COc1ccc(C(=O)CCCN2CCC(=C3c4ccccc4C=Cc4ccccc43)CC2)c(OC)c1OC.Cl [Example 171, 4-(4-(5H-Dibenzo[a,d]cyclohepten-5-ylidene)-1-piperidinyl)-2′,3′,4′-trimethoxybutyrophenone hydrochloride]
- Decrease in systolic blood pressure (mmHg) time after administration (hour) 0.5 (dose 10 mg/kg i.v. bolus): −122 mmHg
- Decrease in systolic blood pressure (mmHg) time after administration (hour) 4 (dose 10 mg/kg i.v. bolus): −8 mmHg

Compound: COc1cc2c(cc1OC)CC(CCN1CCC(=C3c4ccccc4C=Cc4ccccc43)CC1)C2.Cl [Example 240]
- Decrease in systolic blood pressure (mmHg) time after administration (hour) 0.5 (dose 3 mg/kg i.v. bolus): −118 mmHg
- Decrease in systolic blood pressure (mmHg) time after administration (hour) 4 (dose 3 mg/kg i.v. bolus): −5 mmHg

Compound: 5-(4-(5H-Dibenzo[a,d]cyclohepten-5-ylidene)-1-piperidine hydrochloride [Example 116]
- Decrease in systolic blood pressure (mmHg) time after administration (hour) 0.5 (dose 10 mg/kg i.v. bolus): −36 mmHg
- Decrease in systolic blood pressure (mmHg) time after administration (hour) 4 (dose 10 mg/kg i.v. bolus): −12 mmHg

Compound: Cl.O=C(CCN1CCC(=C2c3ccccc3C=Cc3ccccc32)CC1)OC1CCCCC1 [Example 236, Cyclohexyl 3-(4-(5H-Dibenzo[a,d]cyclohepten-5-ylidene)-1-piperidinyl)propionate hydrochloride]
- Decrease in systolic blood pressure (mmHg) time after administration (hour) 0.5 (dose 10 mg/kg i.v. bolus): −10 mmHg
- Decrease in systolic blood pressure (mmHg) time after administration (hour) 4 (dose 10 mg/kg i.v. bolus): −15 mmHg

Compound: 1-(4-Methoxyxyxlohexyl)-4-(4-(5H-dibenzo[a,d]cyclohepten-5-ylidene)-1-piperidinyl)butane hydroxybutane hydrochloride [Example 208]
- Decrease in systolic blood pressure (mmHg) time after administration (hour) 0.5 (dose 10 mg/kg i.v. bolus): −131 mmHg
- Decrease in systolic blood pressure (mmHg) time after administration (hour) 4 (dose 10 mg/kg i.v. bolus): −19 mmHg

Compound: COc1ccc(C(=O)C(C)CCN2CCC(=C3c4ccccc4C=Cc4ccccc43)CC2)cc1OC.Cl (centres unmarked) [Example 274, 4-(4-(5H-Dibenzo[a,d]cyclohepten-5-ylidene)-1-piperidinyl)-2-methyl-3′,4′-dimethoxybutyrophenone hydrochloride]
- Decrease in systolic blood pressure (mmHg) time after administration (hour) 0.5 (dose 10 mg/kg i.v. bolus): −102 mmHg
- Decrease in systolic blood pressure (mmHg) time after administration (hour) 4 (dose 10 mg/kg i.v. bolus): −21 mmHg

Compound: Cl.OC1CCC(CCCCN2CCC(=C3c4ccccc4C=Cc4ccccc43)CC2)CC1 (centres unmarked) [Example 296, 1-(1-(4-Hydroxy)cyclohexyl)-4-(4-(5H-dibenzo[a,d]cyclohepten-5-ylidene)-1-piperidinyl)butane hydrochloride]
- Decrease in systolic blood pressure (mmHg) time after administration (hour) 0.5 (dose 10 mg/kg i.v. bolus): −109 mmHg
- Decrease in systolic blood pressure (mmHg) time after administration (hour) 4 (dose 10 mg/kg i.v. bolus): −14 mmHg

Compound: C1=Cc2ccccc2C(=C2CCN(CCCCCC3CCCCC3)CC2)c2ccccc21 [Example 11, 1-Cyclohexyl-5-(4-(5H-dibenzo[a,d]cyclohepten-5-ylidene)-1-piperidinyl)pentane hydrochloride]
- Decrease in systolic blood pressure (mmHg) time after administration (hour) 0.5 (dose 10 mg/kg i.v. bolus): −166 mmHg

Compound: CC(C)(C)C(=O)Nc1ccc(C=CCN2CCC(=C3c4ccccc4C=Cc4ccccc43)CC2)cc1.Cl [Example 379]
- Decrease in systolic blood pressure (mmHg) time after administration (hour) 0.5 (dose 1 mg/kg i.v. bolus): −118 mmHg
- Decrease in systolic blood pressure (mmHg) time after administration (hour) 4 (dose 1 mg/kg i.v. bolus): −59 mmHg

Compound: C1=Cc2ccccc2C(=C2CCN(CCOCC3CCCCC3)CC2)c2ccccc21.Cl [Example 279]
- Decrease in systolic blood pressure (mmHg) time after administration (hour) 0.5 (dose 3 mg/kg i.v. bolus): −83 mmHg
- Decrease in systolic blood pressure (mmHg) time after administration (hour) 4 (dose 3 mg/kg i.v. bolus): −24 mmHg

Compound: CCOC(=O)C(CCN1CCC(=C2c3ccccc3C=Cc3ccccc32)CC1)CC1CCCCC1.Cl (centres unmarked) [Example 259, Ethyl 2-cyclohexylmethyl-4-(4-(5H-dibenzo[a,d]cyclohepten-5-ylidene)-1-piperidinyl)butyrate hydrochloride]
- Decrease in systolic blood pressure (mmHg) time after administration (hour) 0.5 (dose 10 mg/kg i.v. bolus): −46 mmHg
- Decrease in systolic blood pressure (mmHg) time after administration (hour) 4 (dose 10 mg/kg i.v. bolus): −5 mmHg
